Legend:
[1] = Inhibition of antigen-induced release of histamine (AIR) from rat peritoneal mast cells (RMC); format: functional, cell-based; settings: Mast cell, read-out: I50
[2] = Inhibition of IgE-mediated passive cutaneous anaphylaxis in rat at 25 mg/kg, po; format: functional
[3] = Inhibition of IgE-mediated passive cutaneous anaphylaxis in rat when administered orally; format: functional; settings: route po
[4] = molecular target: Hepatocyte growth factor receptor (Homo sapiens, UniProt P08581); test: Inhibition of c-MET (unknown origin)
[5] = system: HT-29; test: Antiproliferative activity against human HT-29 cells; format: functional, cell-based
[6] = system: NCI-H460; test: Antiproliferative activity against human NCI-H460 cells; format: functional, cell-based
[7] = system: A549; test: Antiproliferative activity against human A549 cells; format: functional, cell-based
[8] = system: B16-F10; test: Antiproliferative activity against mouse B16-F10 cells after 72 hrs by MTT assay; format: functional, cell-based; settings: B16-F10, 72 h
[9] = molecular target: Platelet-derived growth factor receptor beta (Homo sapiens, UniProt P09619); test: Inhibition of PDGFR-beta (unknown origin)
[10] = system: L02; test: Antiproliferative activity against human HL7702 cells after 72 hrs by MTT assay; format: functional, cell-based; settings: L02, 72 h
[11] = system: HeLa 229; test: Antiproliferative activity against human HeLa 229 cells after 72 hrs by MTT assay; format: functional, cell-based; settings: HeLa 229, 72 h
[12] = system: HCT-116; test: Antiproliferative activity against human HCT-116 cells after 72 hrs by MTT assay; format: functional, cell-based; settings: HCT-116, 72 h
[13] = molecular target: Fibroblast growth factor receptor 1 (Homo sapiens, UniProt P11362); test: Inhibition of FGFR1 (unknown origin) using ULight-JAK-1 (Tyr1023) peptide as substrate incubated for 90 mins and measured after 1 hr by LANCE Ultra TR-FRET assay
[14] = system: NCI-H460; test: Antiproliferative activity against human NCI-H460 cells after 72 hrs by MTT assay; format: functional, cell-based; settings: NCI-H460, 72 h
[15] = molecular target: T1, Glutamate receptor ionotropic AMPA (Homo sapiens, UniProt P42261+P42262+P42263+P48058); test: Agonist activity at AMPA receptor (unknown origin); format: protein-complex assay
[16] = Cytotoxicity against African green monkey Vero cells; format: toxicity, cell-based; settings: chlorocebus sabaeus
[17] = system: Vero; test: Cytotoxicity against African green monkey Vero cells at 300 uM; format: toxicity, cell-based; settings: chlorocebus sabaeus
[18] = Ratio CC50 for cytotoxicity against African green monkey Vero cells over IC50 for antitrypanosomal activity against […]; format: toxicity, cell-based; settings: read-out: Ratio CC50/IC50
[19] = molecular target: Fibroblast growth factor receptor 3 (Homo sapiens, UniProt P22607); test: Inhibition of FGFR3 (unknown origin)
[20] = Partial agonist activity at GABAA/benzodiazepine receptor complex (unknown origin) measured by [35S]TBPS based functional assay; design: species or system Homo sapiens
[21] = Displacement of [3H]flunitrazepam from GABAA/benzodiazepine receptor complex (unknown origin); design: species or system Homo sapiens
[22] = Metabolic stability in human liver microsomes assessed as compound remaining after 1 hr; format: ADME, Microsome; settings: read-out: Stability
[23] = system: MV4-11; test: Antiproliferative activity against human MV4-11 cells; format: functional, cell-based
[24] = molecular target: Bromodomain-containing protein 4 (Homo sapiens, UniProt O60885); test: Inhibition of BRD4 (unknown origin) using histone-H4 as substrate incubated for 15 mins and measured after 1 hr by AlphaScreen assay
[25] = system: Toxoplasma gondii; test: Anti-tachyzoite activity against Toxoplasma gondii at 100 uM; format: functional, type III
[26] = system: Trichomonas vaginalis; test: Antiprotozoal activity against Trichomonas vaginalis at 10 ug/ml measured at 48 hrs; format: functional; settings: dose 10 µg/ml
[27] = molecular target: T2, Glutamate receptor ionotropic, kainate 1 (Homo sapiens, UniProt P39086); test: Binding affinity to GluK1 ligand binding domain (unknown origin)
[28] = molecular target: T1, Glutamate receptor ionotropic AMPA; test: Displacement of [3H]AMPA from AMPA receptor (unknown origin); format: protein-complex assay
[29] = molecular target: T2, Glutamate receptor ionotropic, kainate 1; test: Binding affinity to GluK1 receptor (unknown origin)
[30] = molecular target: Glutamate receptor ionotropic, kainate 2 (Homo sapiens, UniProt Q13002); test: Binding affinity to GluK2 receptor (unknown origin)
[31] = molecular target: Glutamate receptor 2 (Homo sapiens, UniProt P42262); test: Binding affinity to GluA2 receptor (unknown origin)
[32] = molecular target: T1, Glutamate receptor ionotropic AMPA; test: Displacement of [3H]kainic acid from AMPA receptor (unknown origin); format: protein-complex assay
[33] = molecular target: T1, Glutamate receptor ionotropic AMPA; test: Displacement of […] from AMPA receptor (unknown origin); format: protein-complex assay
[34] = system: Hepatitis C virus; test: Antiviral activity against HCV; format: functional, organism-based, Hepacivirus hominis
[35] = system: Rattus norvegicus; test: Antiobesity activity in fasted Sprague-Dawley rat assessed as inhibition of food intake for more than 2 hrs when administered orally; format: functional; settings: route po
[36] = system: Rattus norvegicus; test: Antiobesity activity in fasted Sprague-Dawley rat assessed as inhibition of food intake for more than 2 hrs when administered intraperitoneally; format: functional; settings: route ip
[37] = Inhibition of IgE-mediated passive cutaneous anaphylaxis in rat; format: functional
[38] = system: Human immunodeficiency virus 1; test: Antiviral activity against HIV1; format: functional, organism-based

Chain of Fibroblast growth factor receptor 1 (P11362 whole entry): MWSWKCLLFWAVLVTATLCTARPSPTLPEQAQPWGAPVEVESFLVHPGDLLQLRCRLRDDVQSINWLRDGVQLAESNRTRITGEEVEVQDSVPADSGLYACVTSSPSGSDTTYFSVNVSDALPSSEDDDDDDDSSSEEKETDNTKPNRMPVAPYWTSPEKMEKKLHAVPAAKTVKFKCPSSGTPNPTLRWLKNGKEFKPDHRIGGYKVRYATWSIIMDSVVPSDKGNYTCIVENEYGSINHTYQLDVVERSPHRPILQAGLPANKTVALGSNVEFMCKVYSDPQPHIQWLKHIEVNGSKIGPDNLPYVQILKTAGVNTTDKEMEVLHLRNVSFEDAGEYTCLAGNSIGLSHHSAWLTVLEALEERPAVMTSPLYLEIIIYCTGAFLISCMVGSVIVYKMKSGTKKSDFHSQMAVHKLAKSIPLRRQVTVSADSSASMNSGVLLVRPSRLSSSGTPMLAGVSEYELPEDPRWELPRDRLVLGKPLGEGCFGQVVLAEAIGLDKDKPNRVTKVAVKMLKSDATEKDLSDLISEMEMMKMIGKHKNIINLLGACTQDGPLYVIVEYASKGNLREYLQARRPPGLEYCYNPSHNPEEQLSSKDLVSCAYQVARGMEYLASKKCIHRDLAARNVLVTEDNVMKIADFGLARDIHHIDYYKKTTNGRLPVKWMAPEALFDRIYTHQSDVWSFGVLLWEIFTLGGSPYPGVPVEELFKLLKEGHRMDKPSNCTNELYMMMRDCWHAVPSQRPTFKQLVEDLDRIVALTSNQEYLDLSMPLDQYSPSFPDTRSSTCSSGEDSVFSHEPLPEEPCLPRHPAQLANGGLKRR
T2 sequence (P39086 whole entry, the tested form may be a part): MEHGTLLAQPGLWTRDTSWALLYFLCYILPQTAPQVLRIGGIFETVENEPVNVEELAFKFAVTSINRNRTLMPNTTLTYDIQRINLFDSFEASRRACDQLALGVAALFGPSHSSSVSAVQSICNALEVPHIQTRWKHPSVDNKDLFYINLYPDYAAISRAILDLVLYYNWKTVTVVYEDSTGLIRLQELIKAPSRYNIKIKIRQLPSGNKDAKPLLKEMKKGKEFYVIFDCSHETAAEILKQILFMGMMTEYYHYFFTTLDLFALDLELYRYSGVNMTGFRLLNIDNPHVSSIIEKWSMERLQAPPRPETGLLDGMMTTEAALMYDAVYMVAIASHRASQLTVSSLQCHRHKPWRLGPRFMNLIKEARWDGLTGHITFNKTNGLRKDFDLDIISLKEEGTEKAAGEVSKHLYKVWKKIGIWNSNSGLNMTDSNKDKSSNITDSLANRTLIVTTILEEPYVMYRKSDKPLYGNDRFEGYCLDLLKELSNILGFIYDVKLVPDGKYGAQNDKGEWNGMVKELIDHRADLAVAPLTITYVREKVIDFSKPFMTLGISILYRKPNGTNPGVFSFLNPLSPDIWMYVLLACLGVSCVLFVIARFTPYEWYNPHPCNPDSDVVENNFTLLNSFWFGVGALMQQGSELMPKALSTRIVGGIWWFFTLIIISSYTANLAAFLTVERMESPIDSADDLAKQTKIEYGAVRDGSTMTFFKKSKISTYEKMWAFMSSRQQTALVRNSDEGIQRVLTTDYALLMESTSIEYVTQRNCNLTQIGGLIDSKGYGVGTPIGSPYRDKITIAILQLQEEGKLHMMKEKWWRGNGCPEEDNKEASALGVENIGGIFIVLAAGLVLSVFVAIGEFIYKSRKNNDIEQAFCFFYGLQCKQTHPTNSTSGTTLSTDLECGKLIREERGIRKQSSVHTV
Chain of Hepatocyte growth factor receptor (P08581 whole entry): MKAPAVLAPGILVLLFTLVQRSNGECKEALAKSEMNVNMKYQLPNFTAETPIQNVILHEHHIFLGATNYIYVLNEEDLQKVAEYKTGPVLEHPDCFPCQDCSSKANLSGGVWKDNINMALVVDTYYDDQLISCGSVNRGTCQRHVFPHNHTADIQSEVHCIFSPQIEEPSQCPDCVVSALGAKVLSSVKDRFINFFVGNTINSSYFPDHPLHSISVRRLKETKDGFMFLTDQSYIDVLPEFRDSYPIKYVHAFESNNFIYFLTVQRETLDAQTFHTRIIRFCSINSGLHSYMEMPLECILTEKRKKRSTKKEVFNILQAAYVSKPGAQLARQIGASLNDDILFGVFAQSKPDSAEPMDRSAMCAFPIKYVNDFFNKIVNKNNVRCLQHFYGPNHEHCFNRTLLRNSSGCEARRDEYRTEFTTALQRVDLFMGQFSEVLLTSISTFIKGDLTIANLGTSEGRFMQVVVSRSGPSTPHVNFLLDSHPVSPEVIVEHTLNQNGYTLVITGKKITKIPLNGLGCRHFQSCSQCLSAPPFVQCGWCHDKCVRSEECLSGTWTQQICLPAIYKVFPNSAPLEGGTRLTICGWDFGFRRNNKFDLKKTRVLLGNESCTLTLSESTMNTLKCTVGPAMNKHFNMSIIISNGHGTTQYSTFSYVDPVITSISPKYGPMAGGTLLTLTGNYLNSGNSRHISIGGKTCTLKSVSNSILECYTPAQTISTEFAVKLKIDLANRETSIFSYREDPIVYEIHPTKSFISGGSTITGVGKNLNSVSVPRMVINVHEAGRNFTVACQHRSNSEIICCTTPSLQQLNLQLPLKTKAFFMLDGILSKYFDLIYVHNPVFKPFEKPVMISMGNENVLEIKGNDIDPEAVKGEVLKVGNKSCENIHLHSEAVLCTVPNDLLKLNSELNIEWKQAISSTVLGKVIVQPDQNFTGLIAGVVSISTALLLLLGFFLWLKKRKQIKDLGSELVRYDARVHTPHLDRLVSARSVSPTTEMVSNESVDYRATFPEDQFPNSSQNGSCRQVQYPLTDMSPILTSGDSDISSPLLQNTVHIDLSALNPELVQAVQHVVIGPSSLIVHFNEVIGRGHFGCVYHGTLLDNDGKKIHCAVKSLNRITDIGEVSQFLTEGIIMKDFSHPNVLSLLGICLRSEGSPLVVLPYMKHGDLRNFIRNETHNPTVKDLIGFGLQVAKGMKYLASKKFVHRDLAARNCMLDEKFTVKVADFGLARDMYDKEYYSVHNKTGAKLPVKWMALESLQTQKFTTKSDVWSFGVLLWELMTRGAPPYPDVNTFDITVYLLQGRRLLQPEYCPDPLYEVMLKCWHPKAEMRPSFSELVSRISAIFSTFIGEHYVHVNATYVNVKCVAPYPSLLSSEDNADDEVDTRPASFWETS
Chain of Glutamate receptor 2 (P42262 whole entry): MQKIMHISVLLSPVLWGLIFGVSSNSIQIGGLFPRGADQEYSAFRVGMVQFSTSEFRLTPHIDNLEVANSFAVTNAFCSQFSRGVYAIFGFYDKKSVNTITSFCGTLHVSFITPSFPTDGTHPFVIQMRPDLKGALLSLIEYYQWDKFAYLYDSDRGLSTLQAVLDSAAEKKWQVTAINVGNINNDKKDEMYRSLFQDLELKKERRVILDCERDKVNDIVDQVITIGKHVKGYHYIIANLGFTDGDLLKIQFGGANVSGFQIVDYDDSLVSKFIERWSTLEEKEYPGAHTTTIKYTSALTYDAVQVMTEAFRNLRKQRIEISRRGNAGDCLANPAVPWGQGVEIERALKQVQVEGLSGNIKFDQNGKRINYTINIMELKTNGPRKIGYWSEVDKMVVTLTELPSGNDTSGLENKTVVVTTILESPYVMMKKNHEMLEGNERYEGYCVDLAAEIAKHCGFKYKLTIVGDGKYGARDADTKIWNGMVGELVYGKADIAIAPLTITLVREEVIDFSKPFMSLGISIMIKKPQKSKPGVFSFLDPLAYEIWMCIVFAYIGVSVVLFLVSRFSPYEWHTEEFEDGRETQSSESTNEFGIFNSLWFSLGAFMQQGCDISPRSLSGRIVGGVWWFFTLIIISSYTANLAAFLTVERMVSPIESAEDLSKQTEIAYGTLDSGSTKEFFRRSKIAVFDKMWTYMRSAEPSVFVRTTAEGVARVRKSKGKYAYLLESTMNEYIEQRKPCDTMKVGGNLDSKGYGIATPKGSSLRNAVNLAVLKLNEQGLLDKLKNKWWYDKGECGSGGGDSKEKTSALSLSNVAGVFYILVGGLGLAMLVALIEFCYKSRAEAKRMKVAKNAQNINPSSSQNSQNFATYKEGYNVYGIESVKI
Chain of Fibroblast growth factor receptor 3 (P22607 whole entry): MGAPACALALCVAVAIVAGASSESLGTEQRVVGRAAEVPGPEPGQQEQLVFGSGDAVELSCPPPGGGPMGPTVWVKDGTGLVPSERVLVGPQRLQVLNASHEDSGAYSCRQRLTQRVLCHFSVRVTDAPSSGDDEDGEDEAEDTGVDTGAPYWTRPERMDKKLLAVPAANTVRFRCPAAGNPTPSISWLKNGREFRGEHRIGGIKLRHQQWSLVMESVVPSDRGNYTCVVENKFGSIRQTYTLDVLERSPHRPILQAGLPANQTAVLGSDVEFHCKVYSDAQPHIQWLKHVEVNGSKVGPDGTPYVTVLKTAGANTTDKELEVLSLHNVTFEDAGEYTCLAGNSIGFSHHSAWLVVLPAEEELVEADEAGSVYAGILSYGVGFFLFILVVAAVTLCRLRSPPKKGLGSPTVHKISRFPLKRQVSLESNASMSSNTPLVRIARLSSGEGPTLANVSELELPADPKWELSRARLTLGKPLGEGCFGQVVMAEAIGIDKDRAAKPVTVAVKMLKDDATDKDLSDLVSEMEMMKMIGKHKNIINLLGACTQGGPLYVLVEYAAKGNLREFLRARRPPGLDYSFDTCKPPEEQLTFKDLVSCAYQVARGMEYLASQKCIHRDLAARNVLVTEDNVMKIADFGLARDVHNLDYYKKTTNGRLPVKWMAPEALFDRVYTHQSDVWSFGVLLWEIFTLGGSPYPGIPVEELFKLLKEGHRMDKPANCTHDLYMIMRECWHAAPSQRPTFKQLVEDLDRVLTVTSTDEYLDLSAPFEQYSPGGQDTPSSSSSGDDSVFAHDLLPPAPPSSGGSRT

CCCn1c(=O)c2nnc(O)n2c2ccc(Cl)cc21
IC50 [1]: 0.4 µM | inhibition in vivo at 25 mg/kg [2]: 53% | ED50 [3]: 3 mg/kg

O=C(Nc1ccc(Oc2ccnc(NC(=O)C3CC3)c2)cc1)c1nc2ccccc2n(-c2ccc(F)cc2)c1=O
IC50 [4]: 0.00191 µM | IC50 [5]: 0.65 µM | IC50 [6]: 0.94 µM | IC50 [7]: 1.57 µM

Cn1c(=O)c(/C=C/c2ccccn2)nc2ccccc21
IC50 [8]: 6.64 µM | IC50 [9]: > 89.5 µM | IC50 [10]: 53.7 µM | IC50 [11]: 14.6 µM | IC50 [12]: 7.63 µM | IC50 [13]: 26.7 µM | IC50 [14]: 5.78 µM

N[C@@H](Cn1c(=O)c(=O)[nH]c2ccccc21)C(=O)O
EC50 [15]: 3 µM

O=C1CN(CCCN2CCCCC2)c2ccc([N+](=O)[O-])cc2N1
CC50 [16]: > 300 µM | Activity [17]: 3.26% | selectivity ratio [18]: > 10

O=c1c(/C=C/c2ccccc2Cl)nc2ccccc2n1Cc1ccccc1
IC50 [8]: 3.39 µM | IC50 [19]: 94.5 µM | IC50 [10]: > 100 µM | IC50 [11]: > 50 µM | IC50 [12]: > 50 µM | IC50 [13]: 25.7 µM | IC50 [14]: 18.1 µM

CC(C)n1c(=O)c2c(-c3ccc(F)cc3)ncn2c2cccc(Cl)c21
EC50 [20]: 0.00204 µM | Ki [21]: 0.0146 µM

COc1ccc(N2CCN(CCCNC(=O)Cn3c(=O)c4cccn4c4c(C)ccnc43)CC2)cc1
remaining at 1 h [22]: 22%

CCC1C(=O)Nc2ccc(-c3c(C)noc3C)cc2N1Cc1ccccc1 (stereo not given)
IC50 [23]: 0.253 µM | IC50 [24]: 0.073 µM

O=C1CN(CCCCCN2CCCCCC2)c2ccc([N+](=O)[O-])cc2N1
Activity [25]: 88% | Activity [26]: 2.35%

N[C@@H](CCc1ccc2[nH]c(=O)c(=O)[nH]c2c1)C(=O)O
Ki [27]: 37.1 µM | IC50 [28]: 26 µM | Ki [29]: 16.1 µM | Ki [30]: 9.52 µM | Ki [31]: 21.3 µM | IC50 [32]: 126 µM | Ki [33]: 78 µM

CCC(CC)N(C)c1cc2ncc(=O)[nH]c2cc1Nc1nc(-c2ccccc2)cs1
EC50 [34]: 1.27 µM

O=C1Nc2cc(Cl)c(Cl)cc2N2CCNC[C@H]12
ED50 [35]: 10 mg/kg | ED50 [36]: 2 mg/kg

O=C([O-])c1cc(=O)c2c(OCC(O)COc3cccc4oc(C(=O)[O-])cc(=O)c34)cccc2o1.[Na+].[Na+] [CROMOLYN SODIUM]
IC50 [1]: 3 µM | ED50 [37]: 6 mg/kg

O=C1CN(S(=O)(=O)c2c(Cl)cccc2Cl)c2cc(Cl)ccc2N1
EC50 [38]: 1.09 µM

Source: ChEMBL document CHEMBL5113380, “Functionalized quinoxalinones as privileged structures with broad-ranging pharmacological activities” (Eur J Med Chem, 2022)
